From patent US11213510B2, “Thioindirubins” (City of Hope, priority 2017, dated 2022)
Like-named read-outs stand apart in the source and are kept apart here.

Columns and labels:
Type in all cases: cell-based
[1] = test system: DU145 prostate cancer cell line; experiment: MTS cell viability assay, DU145; conditions: for Cell viability (% control) DU145 1 μM / Cell viability (% control) DU145 10 μM / Cell viability at 10 μM (% control) DU145: 48 h; for Cell viability (% control) DU145 1 μM / Cell viability (% control) DU145 10 μM / IC50: MTS; for IC50: DU145, 48 h, read-out: IC50 values (μM) against prostate cancer and melanoma DU145 (prostate cancer); for Cell viability at 10 μM (% control) DU145: MTS (Table 2)
Description: (§1) To determine if novel synthetic thioindirubins have antitumor activities, we performed an MTS cell viability assay. Initially, we screened them at […] final concentration with A2058 melanoma and DU145 prostate cancer cell lines. Then, compound 9b and compound 7e were selected to determine IC50 values against prostate cancer, melanoma and lung cancer cells, including DU145, A2058, A549, H513, H2461, H358, DMS114, H2596, DMS273, H69, H526 and DMS114 cell lines. For the viability assay, 5000 cells/well were seeded in 96-well plates, incubated overnight at 37° C. in 5% CO2 and then exposed to […] of compounds or in a dose-dependent manner for 48 h. After 48 h treatment with compounds, MTS dye (20 μL/well) was added to 96-well plates. Viable cell numbers were determined by tetrazolium conversion to its formazan dye. Absorbance was measured at 490 nm using the BMG LABTECH plate reader. Dimethyl sulfoxide (DMSO) was used as the vehicle control. Each experiment was conducted in triplicate. IC50 values were determined using CalcuSyn software (Biosoft).

A2058 melanoma cell line = experiment: MTS cell viability assay, A2058; conditions: for Cell viability (% control) A2058 1 μM / Cell viability (% control) A2058 10 μM / Cell viability at 10 μM (% control) A2058: 48 h; for Cell viability (% control) A2058 1 μM / Cell viability (% control) A2058 10 μM / IC50: MTS; for IC50: A2058, 48 h, read-out: IC50 values (μM) against prostate cancer and melanoma A2058 (melanoma); for Cell viability at 10 μM (% control) A2058: MTS (Table 2)
Description: as §1

[2] = test system: H69 small lung cancer cell line; experiment: MTS cell viability assay, H69; conditions: H69, 48 h, read-out: IC50 values (μM) against small lung cancer H69
Description: as §1

[3] = test system: H2596 non-small lung cancer cell line; experiment: MTS cell viability assay, H2596; conditions: H2596, 48 h, read-out: IC50 values (μM) against non-small lung cancer H2596
Description: as §1

[4] = test system: DMS273 small lung cancer cell line; experiment: MTS cell viability assay, DMS273; conditions: read-out: IC50 values (μM) against small lung cancer DMS273
Description: as §1

[5] = test system: A549 non-small lung cancer cell line; experiment: MTS cell viability assay, A549; conditions: A549, 48 h, read-out: IC50 values (μM) against non-small lung cancer A549
Description: as §1

[6] = test system: H358 non-small lung cancer cell line; experiment: MTS cell viability assay, H358; conditions: read-out: IC50 values (μM) against non-small lung cancer H358
Description: as §1

[7] = test system: DMS114 small lung cancer cell line; experiment: MTS cell viability assay, DMS114; conditions: read-out: IC50 values (μM) against small lung cancer DMS114
Description: as §1

[8] = test system: H526 small lung cancer cell line; experiment: MTS cell viability assay, H526; conditions: read-out: IC50 values (μM) against small lung cancer H526
Description: as §1

[9] = test system: H2461 non-small lung cancer cell line; experiment: MTS cell viability assay, H2461; conditions: H2461, 48 h, read-out: IC50 values (μM) against non-small lung cancer H2461
Description: as §1

[10] = test system: H513 non-small lung cancer cell line; experiment: MTS cell viability assay, H513; conditions: H513, 48 h, read-out: IC50 values (μM) against non-small lung cancer H513
Description: as §1

[11] = test system: lung cancer, prostate cancer and melanoma cell lines; experiment: MTS cell viability assay, cancer cell line panel (summary statement); conditions: some cell lines, not specified; read-out: IC50 against some cell lines (antitumor activities)
Experimental: IC50 values (μM) of compound 9b were determined using lung cancer cell lines including non-small lung cancer cell lines (Table 3: A549, H513, H2461, H358, ad H2596) and small lung cancer cell lines (Table 4: DMS273, H69, H526, and DMS114), prostate cancer (Table 5: DU145), melanoma (Table 5: A2058).
as §1

Structure (SMILES): O=C1Nc2ccccc2/C1=C1/Sc2ccccc2C1=O [Compound 6a, (2′Z)-Thioindirubin]
- Cell viability (% control) DU145 1 μM [1]: >100 % control
- Cell viability (% control) DU145 10 μM ([1]; DU145, 10 μM): 90 % control
- Cell viability (% control) A2058 1 μM (A2058 melanoma cell line): 99 % control
- Cell viability (% control) A2058 10 μM (A2058 melanoma cell line; A2058, 10 μM): 77 % control

Structure (SMILES): O=C1Sc2ccccc2/C1=C1/Nc2ccc(Br)cc2C1=O [Compound 6b, (2′Z)-5′-Bromothioindirubin]
- Cell viability (% control) DU145 1 μM [1]: >100 % control
- Cell viability (% control) DU145 10 μM ([1]; DU145, 10 μM): >100 % control
- Cell viability (% control) A2058 1 μM (A2058 melanoma cell line): 97 % control
- Cell viability (% control) A2058 10 μM (A2058 melanoma cell line; A2058, 10 μM): 100 % control

Structure (SMILES): O=C1Sc2ccccc2/C1=C1/Nc2cc(Cl)ccc2C1=O [Compound 6c, (2′Z)-6′-Chlorothioindirubin]
- Cell viability (% control) DU145 1 μM [1]: 80 % control
- Cell viability (% control) DU145 10 μM ([1]; DU145, 10 μM): 82 % control
- Cell viability (% control) A2058 1 μM (A2058 melanoma cell line): 84 % control
- Cell viability (% control) A2058 10 μM (A2058 melanoma cell line; A2058, 10 μM): 96 % control

Structure (SMILES): N#Cc1ccc2c(c1)C(=O)/C(=C1/C(=O)Sc3ccccc31)N2 [Compound 6d, (2′Z)-5′-Cyanothioindirubin]
- Cell viability (% control) DU145 1 μM [1]: >100 % control
- Cell viability (% control) DU145 10 μM ([1]; DU145, 10 μM): 95 % control
- Cell viability (% control) A2058 1 μM (A2058 melanoma cell line): 95 % control
- Cell viability (% control) A2058 10 μM (A2058 melanoma cell line; A2058, 10 μM): 87 % control

Structure (SMILES): COC(=O)c1ccc2c(c1)C(=O)/C(=C1/C(=O)Sc3ccccc31)N2 [Compound 6e, (2′Z)-5′-(Methoxycarbonyl)thioindirubin]
- Cell viability (% control) DU145 1 μM [1]: >100 % control
- Cell viability (% control) DU145 10 μM ([1]; DU145, 10 μM): >100 % control
- Cell viability (% control) A2058 1 μM (A2058 melanoma cell line): 92 % control
- Cell viability (% control) A2058 10 μM (A2058 melanoma cell line; A2058, 10 μM): 94 % control

Structure (SMILES): COC(=O)c1ccc2c(c1)S/C(=C1\C(=O)Nc3ccccc31)C2=O [Compound 6f, (2′Z)-6′-(Methoxycarbonyl)thioindirubin]
- Cell viability (% control) DU145 1 μM [1]: 99 % control
- Cell viability (% control) DU145 10 μM ([1]; DU145, 10 μM): 93 % control
- Cell viability (% control) A2058 1 μM (A2058 melanoma cell line): 93 % control
- Cell viability (% control) A2058 10 μM (A2058 melanoma cell line; A2058, 10 μM): >100 % control

Structure (SMILES): Cc1ccc2c(c1)C(=O)/C(=C1/C(=O)Nc3ccccc31)S2 [Compound 6g, (2′Z)-5′-Methylthioindirubin]
- Cell viability (% control) DU145 1 μM [1]: 94 % control
- Cell viability (% control) DU145 10 μM ([1]; DU145, 10 μM): >100 % control
- Cell viability (% control) A2058 1 μM (A2058 melanoma cell line): >100 % control
- Cell viability (% control) A2058 10 μM (A2058 melanoma cell line; A2058, 10 μM): 97 % control

Structure (SMILES): O=C1Sc2ccccc2/C1=C1/Nc2cc(Cl)ccc2/C1=N\O [Compound 7c, (2′Z,3′E)-6′-Chlorothioindirubin-3′-oxime]
- Cell viability (% control) DU145 1 μM [1]: >100 % control
- Cell viability (% control) DU145 10 μM ([1]; DU145, 10 μM): 33 % control
- Cell viability (% control) A2058 1 μM (A2058 melanoma cell line): 86 % control
- Cell viability (% control) A2058 10 μM (A2058 melanoma cell line; A2058, 10 μM): 27 % control

Structure (SMILES): N#Cc1ccc2c(c1)C(=N\O)/C(=C1/C(=O)Nc3ccccc31)S2 [Compound 7d, (2′Z,3′E)-5′-Cyanothioindirubin-3′-oxime]
- Cell viability (% control) DU145 1 μM [1]: >100 % control
- Cell viability (% control) DU145 10 μM ([1]; DU145, 10 μM): 93 % control
- Cell viability (% control) A2058 1 μM (A2058 melanoma cell line): 89 % control
- Cell viability (% control) A2058 10 μM (A2058 melanoma cell line; A2058, 10 μM): 99 % control

Structure (SMILES): COC(=O)c1ccc2c(c1)C(=N\O)/C(=C1/C(=O)Nc3ccccc31)S2 [Compound 7e, (2′Z,3′E)-5′-(Methoxycarbonyl)thioindirubin-3′-oxime]
- IC50 [2]: > 10 µM
- IC50 [3]: > 10 µM
- IC50 ([4]; DMS273, 48 h): > 10 µM
- IC50 [5]: > 10 µM
- Cell viability (% control) DU145 1 μM [1]: >100 % control
- Cell viability (% control) DU145 10 μM ([1]; DU145, 10 μM): 88 % control
- IC50 [1]: > 10 µM
- Cell viability (% control) A2058 1 μM (A2058 melanoma cell line): 90 % control
- Cell viability (% control) A2058 10 μM (A2058 melanoma cell line; A2058, 10 μM): 68 % control
- IC50 (A2058 melanoma cell line): > 10 µM
- IC50 ([6]; H358, 48 h): 7.7 µM
- IC50 ([7]; DMS114, 48 h): > 10 µM
- IC50 ([8]; H526, 48 h): > 10 µM
- IC50 [9]: > 10 µM
- IC50 [10]: > 10 µM

Structure (SMILES): COC(=O)c1ccc2c(c1)NC(=C1\C(=O)Sc3ccccc31)/C2=N/O [Compound 7f, (2′Z,3′E)-6′-(Methoxycarbonyl)thioindirubin-3′-oxime]
- Cell viability (% control) DU145 1 μM [1]: >100 % control
- Cell viability (% control) DU145 10 μM ([1]; DU145, 10 μM): >100 % control
- Cell viability (% control) A2058 1 μM (A2058 melanoma cell line): 92 % control
- Cell viability (% control) A2058 10 μM (A2058 melanoma cell line; A2058, 10 μM): >100 % control

Structure (SMILES): Cc1ccc2c(c1)C(=N\O)/C(=C1/C(=O)Nc3ccccc31)S2 [Compound 7g, (2′Z,3′E)-5′-Methylthioindirubin-3′-oxime]
- Cell viability (% control) DU145 1 μM [1]: 88 % control
- Cell viability (% control) DU145 10 μM ([1]; DU145, 10 μM): 79 % control
- Cell viability (% control) A2058 1 μM (A2058 melanoma cell line): 84 % control
- Cell viability (% control) A2058 10 μM (A2058 melanoma cell line; A2058, 10 μM): 88 % control

Structure (SMILES): O=C1Nc2ccccc2/C1=C1/Sc2ccccc2/C1=N\OCCN1CCNCC1 [Compound 9a, (2′Z,3′E)-Thioindirubin-3′-[O-(2-(piperazin-1-yl)ethyl)]oxime]
- Cell viability at 10 μM (% control) DU145 ([1]; DU145, 10 μM): 82 % control
- Cell viability at 10 μM (% control) A2058 (A2058 melanoma cell line; A2058, 10 μM): 91 % control

Structure (SMILES): COC(=O)c1ccc2c(c1)C(=N\OCCN1CCNCC1)/C(=C1/C(=O)Sc3ccccc31)N2 [Compound 9b, (2′Z,3′E)-5′-(Methoxycarbonyl)thioindirubin-3′-[O-(2-(piperazin-1-yl)ethyl)]oxime]
- IC50 [2]: 0.78 µM
- IC50 [3]: 1.02 µM
- IC50 ([4]; Homo sapiens, DMS-273, DMS273, 48 h): 6.1 µM
- IC50 ([5]; Homo sapiens): 4.6 µM
- viabilities of these cells at 10 μM concentration (DU145), in words ([1]; DU145, 10 μM): extremely reduced viabilities
- Cell viability at 10 μM (% control) DU145 ([1]; DU145, 10 μM): 17 % control
- IC50 ([1]; Homo sapiens, DU-145): 2.53 µM
- IC50 [11]: ~1000 nM
- viabilities of these cells at 10 μM concentration (A2058), in words (A2058 melanoma cell line; A2058, 10 μM): extremely reduced viabilities
- Cell viability at 10 μM (% control) A2058 (A2058 melanoma cell line; A2058, 10 μM): 8 % control
- IC50 (A2058 melanoma cell line; Homo sapiens): 1.07 µM
- IC50 ([6]; Homo sapiens, NCI-H358, H358, 48 h): 2.4 µM
- IC50 ([7]; Homo sapiens, DMS-114, DMS114, 48 h): 1.13 µM
- IC50 ([8]; Homo sapiens, NCI-H526, H526, 48 h): 1.7 µM
- IC50 [9]: 1 µM
- IC50 [10]: 1.6 µM

Structure (SMILES): COC(=O)c1ccc2c(c1)C(=N\OCCN1CCOCC1)/C(=C1/C(=O)Nc3ccccc31)S2 [Compound 9c, (2′Z,3′E)-5′-(Methoxycarbonyl)thioindirubin-3′-[O-(2-(morpholino)ethyl)]oxime]
- Cell viability at 10 μM (% control) DU145 ([1]; DU145, 10 μM): 101 % control
- Cell viability at 10 μM (% control) A2058 (A2058 melanoma cell line; A2058, 10 μM): 70 % control
